Literature values in patent publication US20090142809A1, “Method for Cleaving Cervimycin Monoesters” (LEIBNIZ-INSTITUT FÜR NATURSTOFF-FORSCHUNG UND INFE, priority 2005, published 2009).

Assays:
[1] = test system: vancomycin-resistant Enterococcus faecalis; details: statement in words in the background section
[2] = test system: multiresistant staphylococci; details: statement in words in the background section

COC1=CC(=O)c2c(cc3c(c2O)C(=O)[C@@]2(O[C@H]4CC[C@H](O[C@H]5CC[C@H](O)[C@@H](C)O5)[C@@H](C)O4)C(O)=C(C(N)=O)C(=O)[C@H](O[C@H]4CC[C@H](O[C@H]5CC[C@H](O[C@H]6CC[C@H](O[C@H]7CC[C@H](O)[C@H](C)O7)[C@H](C)O6)[C@H](C)O5)[C@@H](C)O4)[C@H]2C3)C1=O [cervimycin K]
activity against the vancomycin-resistant Enterococcus faecalis [1]: extremely strong activity | activity against multiresistant staphylococci [2]: extremely strong activity
